Data from patent publication US8030335B2, “Use of liver X receptor agonists” (Laboratoires Fournier S.A., priority 2005, dated 2011).

Experiments:
pancreatic sections = assay: Apoptosis by TUNEL staining on pancreatic sections; assay type: in vivo, rat; settings: 8 weeks-old ZDF rats, 10 mg/kg for 4 weeks, vehicle 4.55±1.29%, p<0.05
Experimental: Islet cell apoptosis was determined by transferase-mediated dUTP nick-end labeling (TUNEL) staining. Cell death was identified by 3′ in situ end labeling of fragmented DNA with biotinylated deoxyuridine-triphosphate. Each pancreatic piece was cut throughout its length into 5 μm thick sections, which were collected on gelatin-coated slides. Four sections at regular intervals were picked in both head and tail pieces. After digestion with Proteinase K (2 μg/ml; Sigma), sections were consecutively washed in TdT buffer (0.5 mol/l cacodylate [pH 6.8], 1 mmol/l cobalt chloride, 0.15 mol/l NaCl) and then incubated at 37° C. with TdT (25U; Boehringer-Mannheim, Mannheim, Germany) and biotinylated dUTP (1 nmol/μl). After washing in TB buffer (300 mmol/l NaCl, 30 mmol/l sodium citrate) to terminate the reaction, incorporation of biotinylated dUTP was detected by a modification of the avidin-biotin complex method. Horseradish peroxidise-conjugated streptavidin-biotin complex was applied (Vector Laboratories). The sections were then developed using DAB as chromogen and lightly counterstained with hematoxylin and mounted in dePex (BDH Laboratory, Poole, England).
Apoptosis have also been estimated using the TUNEL staining method on pancreatic sections of 5 animals of 8 weeks-old ZDF rats treated with GW3965 at 10 mg/kg for 4 weeks.

[1] = test system: male Zucker Diabetic Fatty fa/fa (ZDF) rat; assay: Plasma glucose in ZDF rats during and after 3 weeks of oral treatment; assay type: in vivo
Description: The male Zucker Diabetic Fatty fa/fa (ZDF) rat is a model of Type II diabetes. The rats are insulin resistant but normoglycemic from birth and they develop diabetes from about week 7 to week 10 of age. During the transitional period, the animals go through a state of impaired glucose tolerance. Although the animals are hyperinsulinemic before diabetes onset and during the early stages of diabetes, they later lose glucose-stimulated insulin secretion and finally become almost completely insulinopenic. Male ZDF fa/fa and ZDF fa+ rats were obtained from Genetic Models (Indianapolis, Ind.), at the age of 6 weeks and used in the experiments at 12 weeks of age, after 3 weeks of oral treatment with vehicle or GW3965 (10 mg/kg). Compounds were given once daily (at 17 h) via oral gavage. At the time of their use, the ZDF fa/fa rats weighed 310-350 g, whereas the age-matched ZDF fa+ rats weighed 245-285 g. ZDF fa+ and ZDF fa/fa animals had free access to diabetogenic chow (Purina 5008). Animals were housed 5 per cage in a temperature and humidity-controlled room with a 12/12-h light-dark cycle. Blood samples were taken 16 h after compound administration via the tail vein and measured on a Konelab 300 (Labsystem) clinical chemistry analyzer. At the beginning of the study, glycemia was similar in vehicle- and GW3965-treated ZDF rats.

`O=C(O)Cc1cccc(OCCCN(Cc2cccc(C(F)(F)F)c2Cl)CC(c2ccccc2)c2ccccc2)c1` [GW3965] was tested, and the “% of apoptosis by TUNEL staining” value (pancreatic sections) was 1.41±0.96%, the “plasma glucose (glycemia) during treatment” value ([1]; 10 mg/kg oral once daily, day 6 to day 21, vs vehicle) was “significantly prevented this rise and maintained glycemia at low level” and the “glycemia and HbA1c” value ([1]; after 21 days of treatment) was “significant decrease”. For the same compound, the “glycemia after the end of treatment” value ([1]; day 44, no treatment from day 21, previously 10 mg/kg oral for 3 weeks) was “still significantly reduced”.
